In brackets after ≈: the same amount, converted by molar mass. Several values for one entry are separate records, joined by “and”; a condition that tells them apart may be missing. Identical values can stand only once. Like-named read-outs stand apart in the source and are kept apart here.
Columns and labels:
Assay type in all cases: cell-based
[1] = test system: Staphylococcus aureus; assay: Broth microdilution MIC, 50 clinical isolates (28 MRSA)
Experimental: (§1) Minimal inhibitory concentration (MIC) values were determined by broth microdilution or agar dilution in accordance with guidelines from the Clinical and Laboratory Standards Institute (CLSI; (1) “Methods for Dilution Antimicrobial Susceptibility Tests for Bacteria That Grow Aerobically; Approved Standard; 11th ed.” CLSI standard M07-A11, 2018; (2) “Performance Standards for Antimicrobial Susceptibility Testing; Twenty-Eighth Informational Supplement,” CLSI document M100-S28, 2018; and (3) “Methods for Antimicrobial Susceptibility Testing of Anaerobic Bacteria; Approved Standard—Eighth Edition,” CLSI document M11-A8, 2012).
(§2) Tested aerobically by broth microdilution: • Escherichia coli, n=50 • Klebsiella spp., n=50 • Pseudomonas aeruginosa, n=50 • Streptococcus spp., n=50 • Staphylococcus aureus, n=50 • Enterococcus faecalis, n=50 • Enterobacter aerogenes, n=50 • Proteus mirabilis, n=50
(§3) Broth microdilution testing of aerobic bacteria was conducted in cation-adjusted Mueller Hinton broth (MHBII). For testing streptococci, lysed horse blood (LHB) was added to MHBII broth at a final concentration of 3%. Where LHB was used, it was added after filtering.
(§4) Broth microdilution susceptibility testing in 96-well microplates was conducted in accordance with CLSI methods (1) and (2). Automated liquid handlers were used to conduct serial dilutions and liquid transfers, including the Multidrop 384 (Labsystems, Helsinki, Finland), Biomek 2000, and the Biomek FX (Beckman Coulter, Fullerton, Calif.). All wells in columns 2 through 12 of a standard 96-well microdilution plate (Costar 3795) were filled with 150 μL of the appropriate diluent. Then, 300 μL of the test agents were added to the wells of column 1 of the plates at 100× the highest final concentration to be tested. Serial two-fold dilutions were made across the rows through column 11 using the Biomek 2000. The wells of column 12 contained no drug and served as the growth control wells. This plate served as the “mother plate” from which MIC assay plates or “daughter plates” were made.
(§5) The daughter plates were loaded with 190 μL per well of the appropriate medium using the Multidrop 384. The daughter plates were created using the Biomek FX which transferred 2 μL of drug solution from each well of a mother plate to each corresponding well of the daughter plate in a single step. A standardized inoculum of each test organism was prepared per CLSI methods (1) to equal a 0.5 McFarland standard, followed by a dilution of 1:20 for aerobes and 1:10 for anaerobes. The plates were then inoculated with 10 μL of the diluted inoculum using the Biomek 2000 from low to high drug concentration, resulting in a final concentration of approximately 5×10^5 CFU/mL per well. An un-inoculated plate was incubated in parallel for each medium for the purpose of assessing solubility of the drug in the test media.
(§6) Inoculated plates were stacked 3 or 4 high, covered with a sterile lid on the top plate, placed into boxes with CO2 planchets (streptococci) or plastic bags (all other isolates). Plates were incubated at 35° C. for 16-24 hr in ambient air for aerobes or for 42-48 hr in the anaerobic environment of the Bactron II anaerobe chamber (Sheldon Manufacturing Co.; Cornelius, Oreg.). Following incubation, the microplates were removed from the incubator and viewed from the bottom using a plate viewer. The MIC values were read and recorded as the lowest concentration of drug that inhibited visible growth of the organism as per CLSI methods (1) and (2).

[2] = test system: Streptococcus pyogenes; assay: Broth microdilution MIC, 19 clinical isolates; conditions: for MIC50 / MIC90: Streptococcus pyogenes
Experimental: as §1, §2, §3, §4, §5, §6

[3] = test system: Streptococcus agalactiae; assay: Broth microdilution MIC, 20 clinical isolates; conditions: for MIC50 / MIC90: Streptococcus agalactiae
Experimental: as §1, §2, §3, §4, §5, §6

[4] = test system: Streptococcus spp.; assay: Broth microdilution MIC, 54 clinical isolates; conditions: for % S: MXF by FDA breakpoints; for Mode: modal MIC
Experimental: as §1, §2, §3, §4, §5, §6

[5] = test system: Viridans group Streptococcus; assay: Broth microdilution MIC, 15 clinical isolates; conditions: for % S: MXF by FDA breakpoints; for Mode: modal MIC
Experimental: as §1, §2, §3, §4, §5, §6

[6] = test system: Streptococcus pyogenes clinical isolates; assay: MIC distribution against clinical isolates
Excerpt: (§7) As used herein, “minimum inhibitory concentration” or “MIC” refers to the lowest concentration of an antimicrobial agent, for example, an antimicrobial agent as described herein, required to inhibit the growth of an organism. […] “MIC90” represents the MIC value at which ≥90% of the strains within a test population are inhibited; the 90th percentile.
(§8) Many susceptibility testing methods are known in the art and can be used as described herein (see, e.g., Jorgensen and Ferraro (2009) Clinical Infectious Diseases 49:1749-1755; and Maurer et al. (2017) Infectious Disease Reports 9:6839; the entire contents of each of the foregoing are incorporated herein by reference). For example, antimicrobial susceptibility can be determined using conventional culture based methods such as the broth or agar dilution test. In these dilution tests, the bacterial isolate of interest is inoculated onto different media that include serial dilutions of an antimicrobial agent, and incubated under appropriate conditions (e.g., overnight at 37° C.) to allow for growth to occur. Following the incubation period, the media is examined to determine bacterial growth. The lowest concentration of antibiotic that prevents growth represents the minimal inhibitory concentration (MIC). Broth dilution tests can be miniaturized and mechanized allowing for reproducibility and high throughput.

[7] = test system: Viridans group Streptococci clinical isolates; assay: MIC distribution against clinical isolates; conditions: 15 Viridans group Streptococci isolates
Excerpt: as §7, §8

[8] = test system: Enterococcus faecalis; assay: Broth microdilution MIC, 50 clinical isolates
Experimental: as §1, §2, §3, §4, §5, §6

[9] = 54 Streptococcus spp. clinical isolates
[10] = 15 Viridans group Streptococci clinical isolates
[11] = MIC 0.015 μg/mL, 19 S. pyogenes isolates
[12] = MIC 0.03 μg/mL, 19 S. pyogenes isolates
[13] = MIC 0.06 μg/mL, 19 S. pyogenes isolates

CO/N=C(\C(=O)N[C@@H]1C(=O)N2C(C(=O)O)=C(CSc3nc(=O)c(=O)[nH]n3C)CS[C@H]12)c1csc(N)n1 [ceftriaxone]
Mode [1]: >64 µg/mL | MIC50 ([1]; Staphylococcus aureus, read-out: MIC50): 32 µg/mL (≈ 57.7 µM) | MIC90 ([1]; Staphylococcus aureus, read-out: MIC90): > 64 µg/mL | MIC90 ([1]; listed as CTR): >64 µg/mL | % S [2]: 100% | MIC range [2]: 0.015 to 0.06 µg/mL | Mode [2]: 0.015 µg/mL | MIC50 ([2]; read-out: MIC50): 0.015 µg/mL (≈ 0.027 µM) | MIC90 ([2]; read-out: MIC90): 0.03 µg/mL (≈ 0.0541 µM) | MIC50 ([3]; read-out: MIC50): 0.06 µg/mL (≈ 0.108 µM) | MIC90 ([3]; read-out: MIC90): 0.06 µg/mL (≈ 0.108 µM) | isolates susceptible [4]: 100% | MIC50 [4, 9]: 0.03 µg/mL (≈ 0.0541 µM) | MIC90 [4, 9]: 0.12 µg/mL (≈ 0.216 µM) | MIC range [4, 9]: 0.008 to 1 µg/mL | % S [4, 9]: 100% | MIC50 ([4]; Streptococcus, read-out: MIC50): 0.03 µg/mL (≈ 0.0541 µM) | MIC90 ([4]; Streptococcus, read-out: MIC90): 0.12 µg/mL (≈ 0.216 µM) | Mode [4, 9]: 0.06 µg/mL | MIC50 [5, 10]: 0.06 µg/mL (≈ 0.108 µM) | MIC90 [5, 10]: 0.5 µg/mL (≈ 0.902 µM) | MIC range [5, 10]: 0.008 to 1 µg/mL | % S [5, 10]: 100% | MIC50 ([5]; Streptococcus, read-out: MIC50): 0.06 µg/mL (≈ 0.108 µM) | MIC90 ([5]; Streptococcus, read-out: MIC90): 0.5 µg/mL (≈ 0.902 µM) | Mode [5, 10]: 0.06 µg/mL | Cumulative percentage of isolates inhibited at MIC [6, 11]: 84.2% | Number of test isolates at MIC [6, 11]: 16 | Cumulative percentage of isolates inhibited at MIC [6, 12]: 94.7% | Number of test isolates at MIC [6, 12]: 2 | Cumulative percentage of isolates inhibited at MIC [6, 13]: 100.0% | Number of test isolates at MIC [6, 13]: 1 | Cumulative percentage of isolates inhibited at MIC ([7]; MIC 0.008 μg/mL): 6.7% | Number of test isolates at MIC ([7]; MIC 0.008 μg/mL): 1 | Cumulative percentage of isolates inhibited at MIC ([7]; MIC 0.015 μg/mL): 20.0% | Number of test isolates at MIC ([7]; MIC 0.015 μg/mL): 2 | Cumulative percentage of isolates inhibited at MIC ([7]; MIC 0.03 μg/mL): 33.3% | Number of test isolates at MIC ([7]; MIC 0.03 μg/mL): 2 | Cumulative percentage of isolates inhibited at MIC ([7]; MIC 0.06 μg/mL): 66.7% | Number of test isolates at MIC ([7]; MIC 0.06 μg/mL): 5 | Cumulative percentage of isolates inhibited at MIC ([7]; MIC 0.5 μg/mL): 93.3% | Number of test isolates at MIC ([7]; MIC 0.5 μg/mL): 1 | Cumulative percentage of isolates inhibited at MIC ([7]; MIC 1 μg/mL): 100.0% | Number of test isolates at MIC ([7]; MIC 1 μg/mL): 1 | Mode [8]: >64 µg/mL | MIC50 ([8]; Enterococcus faecalis, read-out: MIC50): > 64 µg/mL | MIC90 ([8]; Enterococcus faecalis, read-out: MIC90): > 64 µg/mL | MIC50 ([8]; listed as CTR): >64 µg/mL | MIC90 ([8]; listed as CTR): >64 µg/mL

CN[C@H](CC(C)C)C(=O)N[C@H]1C(=O)N[C@@H](CC(N)=O)C(=O)N[C@H]2C(=O)N[C@H]3C(=O)N[C@H](C(=O)N[C@H](C(=O)O)c4cc(O)cc(O)c4-c4cc3ccc4O)[C@H](O)c3ccc(c(Cl)c3)Oc3cc2cc(c3O[C@@H]2O[C@H](CO)[C@@H](O)[C@H](O)[C@H]2O[C@H]2C[C@](C)(N)[C@H](O)[C@H](C)O2)Oc2ccc(cc2Cl)[C@H]1O [vancomycin, Vancomycin]
% S [1]: 100% | MIC range [1]: 0.25 to 1 µg/mL | Mode [1]: 0.5 µg/mL | MIC50 ([1]; Staphylococcus aureus): 0.5 µg/mL (≈ 0.345 µM) | MIC90 ([1]; Staphylococcus aureus): 1 µg/mL (≈ 0.69 µM) | % S [2]: 100% | MIC range [2]: 0.25 to 0.5 µg/mL | Mode [2]: 0.25 µg/mL | MIC50 [2]: 0.25 µg/mL (≈ 0.173 µM) | MIC90 [2]: 0.5 µg/mL (≈ 0.345 µM) | MIC range ([3]; 20 Streptococcus agalactiae clinical isolates): 0.25 to 1 µg/mL | % S ([3]; 20 Streptococcus agalactiae clinical isolates, MXF by FDA breakpoints): 100% | MIC50 [3]: 0.5 µg/mL (≈ 0.345 µM) | MIC90 [3]: 0.5 µg/mL (≈ 0.345 µM) | Mode ([3]; modal MIC, 20 Streptococcus agalactiae clinical isolates): 0.5 µg/mL | MIC range [4, 9]: 0.25 to 1 µg/mL | % S [4, 9]: 100% | MIC50 ([4]; Streptococcus): 0.25 µg/mL (≈ 0.173 µM) | MIC90 ([4]; Streptococcus): 0.5 µg/mL (≈ 0.345 µM) | Mode [4, 9]: 0.25 µg/mL | MIC range [5, 10]: 0.25 to 1 µg/mL | % S [5, 10]: 100% | MIC50 ([5]; Streptococcus): 0.5 µg/mL (≈ 0.345 µM) | MIC90 ([5]; Streptococcus): 0.5 µg/mL (≈ 0.345 µM) | Mode [5, 10]: 0.5 µg/mL | Cumulative percentage of isolates inhibited at MIC ([6]; listed as VAN): 89.5% and 100.0% | Cumulative percentage of isolates inhibited at MIC ([7]; MIC 1 μg/mL): 100.0% | Number of test isolates at MIC ([7]; MIC 1 μg/mL): 1 | % R [8]: 26% | % S [8]: 74% ^ | Mode [8]: 0.5 µg/mL | MIC50 ([8]; Enterococcus faecalis): 1 µg/mL (≈ 0.69 µM) | MIC90 ([8]; Enterococcus faecalis): > 32 µg/mL | % R ([8]; listed as VAN): 26% ^

— patent publication US20210386367A1, “DEVICES AND SYSTEMS FOR GASTROINTESTINAL MICROBIOME DETECTION AND MANIPULATION” (Progenity, Inc., priority 2018, published 2021)
